Consider 1 compound from US20040176349A1, “Antibacterial composition” (priority 2001, published 2004).

One assay has as its system E. faecalis ATCC 10541. The experiment in a line: Checkerboard microdilution MIC with PFOB, Table 2. It counts as cell-based. To be noted: E. faecalis ATCC 10541; alone. From the text:
The aim of the study was to detect any synergy between PFOB and the other antibiotics. For the purposes of the study, synergy was defined in accordance with the FIC (fractional inhibitory concentration) index, as disclosed by Lorian (1991, In “Antibiotics in Laboratory Medicine” 3rd edition, Eds. Williams & Wilkins; esp. p 434-443).

Another assay deals with VRE 300 1562. The experiment in a line: MIC, microbroth dilution (NCCLS), Table 1. It counts as cell-based, Enterococcus. To be noted: compound alone; VRE 300 1562, vancomycin-resistant. The protocol:
(§1) The minimum inhibitory concentration (MIC) of the compounds was determined using the microbroth dilution technique in accordance with NCCLS guidelines, employing Mueller-Hinton broth (National Committee for Clinical Laboratory Standards, NCCLS, 1995 “Methods for dilution antimicrobial susceptibility tests for bacteria that grow aerobically”—approved standard M7-A5).
(§2) The compounds were tested in isolation, at different concentrations.

A further assay deals with VRE 1662. Nature of the assay: MIC, microbroth dilution (NCCLS), Table 1. It counts as cell-based, Enterococcus. The conditions noted are these: compound alone; VRE 1662, vancomycin-resistant. The protocol: as §1, §2
The next assay has as its system VRE 300 2043. The experiment in a line: MIC, microbroth dilution (NCCLS), Table 1. It counts as cell-based, Enterococcus. The conditions noted are these: compound alone; VRE 300 2043, vancomycin-resistant. The procedure:
as §1, §2

The test system of a further assay is VRE 300 1590. The experiment in a line: MIC, microbroth dilution (NCCLS), Table 1. It counts as cell-based, Enterococcus. To be noted: compound alone; VRE 300 1590, vancomycin-resistant. The protocol: as §1, §2
For the next assay, the system named is E. faecium NCTC 7171. The experiment in a line: MIC, microbroth dilution (NCCLS), Table 1. It counts as cell-based. To be noted: compound alone; E. faecium NCTC 7171, vancomycin-susceptible. The procedure: as §1, §2
The subject of another assay is E. faecalis SFZ. Nature of the assay: MIC, microbroth dilution (NCCLS), Table 1. It counts as cell-based. The conditions noted are these: compound alone; E. faecalis SFZ, vancomycin-susceptible. The procedure: as §1, §2
The subject of another assay is E. hirae ATCC 10541. Nature of the assay: MIC, microbroth dilution (NCCLS), Table 1. It counts as cell-based. The conditions noted are these: compound alone; E. hirae ATCC 10541, vancomycin-susceptible. The procedure:
as §1, §2

Another assay relates to E. faecalis Phillips. Nature of the assay: MIC, microbroth dilution (NCCLS), Table 1. It counts as cell-based. To be noted: compound alone; E. faecalis Phillips, vancomycin-susceptible. The procedure:
as §1, §2

The next assay has as its system E. faecalis 24592. The experiment in a line: MIC, microbroth dilution (NCCLS), Table 1. It counts as cell-based. The conditions noted are these: compound alone; E. faecalis 24592, vancomycin-susceptible. The procedure: as §1, §2
The subject of another assay is E. faecalis NCTC 5957. Nature of the assay: MIC, microbroth dilution (NCCLS), Table 1. It counts as cell-based. To be noted: compound alone; E. faecalis NCTC 5957, vancomycin-susceptible. The protocol: as §1, §2
Assay [1] concerns enterococcal penicillin binding proteins (PBPs). The experiment in a line: Radiolabelled penicillin competition assay for PBP affinity. The arrangement: species or system Enterococcus. The conditions noted are these: in words. The procedure:
Further experiments were conducted in an attempt to determine the mechanism of the unexpected synergy between antibiotics (as exemplified by Ceftazidime) and compounds in accordance with general formula I or II (as exemplified by PFOB). The affinity of PFOB for enterococcal penicillin binding proteins (PBPs) was investigated using a conventional radiolabelling assay (Boulton & Orr 1983 “Detection of bacterial penicillin binding proteins and their role in the interpretation of the mode of action of beta-lactam antibiotics” In “Antibiotics: Assessment of antimicrobial activity and resistance” Eds. Denver & Quesnel. Society for […], Technical Series 18, pp161-182, Academic Press”). In this assay, the inner bacterial membrane containing the PBPs was extracted, exposed to differing concentrations of test agent (i.e. PFOB) and excess radiolabelled penicillin, followed by separation and visualisation of the PBPs using gel electrophoresis and fluorography.

A further assay concerns E. faecalis ATCC 29212. The experiment in a line: Checkerboard microdilution MIC with PFOB, Table 2. It counts as cell-based. The conditions noted are these: E. faecalis ATCC 29212; alone. The source says: (§3) The aim of the study was to detect any synergy between PFOB and the other antibiotics. For the purposes of the study, synergy was defined in accordance with the FIC (fractional inhibitory concentration) index, as disclosed by Lorian (1991, In “Antibiotics in Laboratory Medicine” 3rd edition, Eds. Williams & Wilkins; esp. p 434-443). In essence, if the combination of test compounds gives at least a 4-fold reduction in the FIC value for each compound, then a synergy may be considered to exist (i.e. FIC of the combination <0.5=synergy; FIC 0.5-2.0=“indifference”; and FIC >2=antagonism).
(§4) In Table 2, results in the checkerboard indicating synergy are hatched, and specific optimum synergistic combinations are boxed.

Another assay has as its system E. faecalis 5659 (vanA). The experiment in a line: Checkerboard microdilution MIC with PFOB, Table 2. The conditions noted are these: E. faecalis 5659 (vanA); alone. It counts as cell-based.
From the text: as §3, §4

The next assay deals with E.faecalis 78097 (van B). The experiment in a line: Checkerboard microdilution MIC with PFOB, Table 2. It counts as cell-based. The conditions noted are these: E.faecalis 78097 (van B); alone.
From the text: as §3, §4

In another assay the test system is Enterococcus strains. The experiment in a line: MIC against Enterococcus strains, summary of Example 1. It counts as cell-based. To be noted: compound alone; all strains of Table 1; in words. The protocol: as §1, §2
Assay [2] deals with E. faecalis SFZ (vancomycin-sensitive isolate, VSE). The experiment in a line: Time-kill experiment (viable count). It counts as cell-based. To be noted: FIG. 2, ceftazidime alone at 128 mg/L, PFOB alone at 64 mg/L. From the text: FIG. 2 is a graph of Log viable count (cfu per ml) against time (in hours) for the VSE isolate in the presence or absence of the drugs. […] The isolates used in the Example are purely illustrative and not especially unusual.

In brackets after ≈: the same amount, converted by molar mass.

`C[C@@H](O)[C@H]1C(=O)N2C(C(=O)O)=C(C(C)(C)CCCN)O[C@H]12` [(1′R, 5R, 6R)-2-(4-amino-1,1-dimethylbutyl)-6-(1′-hydroxyethyl) oxapenem-3-carboxylic acid]: the “MIC (alone) of PFOB” value with E. faecalis ATCC 10541 was 16 µg/mL; with E. faecalis ATCC 29212, above 32 µg/mL; in the assay with E. faecalis 5659 (vanA), above 32 µg/mL; with E.faecalis 78097 (van B), above 32 µg/mL. Also, the MIC in the assay on VRE 300 1562 was 128 µg/mL (≈ 429 µM); in the assay with VRE 1662 it was above 128 µg/mL; in the assay with VRE 300 2043 it was 32 µg/mL (≈ 107 µM); in the assay with VRE 300 1590, above 128 µg/mL; in the assay on E. faecium NCTC 7171 it was 16 µg/mL (≈ 53.6 µM); in the assay on E. faecalis SFZ, 64 µg/mL (≈ 215 µM). Besides, the MIC worked out at 16 µg/mL (≈ 53.6 µM) against E. hirae ATCC 10541, 32 µg/mL (≈ 107 µM) against E. faecalis Phillips, 32 µg/mL (≈ 107 µM) against E. faecalis 24592 and 32 µg/mL (≈ 107 µM) in the assay on E. faecalis NCTC 5957. In addition, in assay [1] (FIG. 4A versus FIG. 4B), the “affinity for PBPs compared with clavulanic acid” value is on record as “much higher affinity”. In [1] (FIG. 4A, PFOB concentration of 3 mg/L), the “binding to PBPs in competition with radiolabelled penicillin” value is recorded as “nearly all PBPs are bound by PFOB, except PBP3”. Besides, the “activity in isolation against the Enterococcus strains tested” value in the assay on Enterococcus strains is “no significant activity”. The “effect on growth (viable count, time-kill)” value in [2] was “some inhibitory effect on growth”.
